Earlier results as cited in patent US20160271121A1, “ANTIFUNGAL COMBINATION THERAPY” (Gavis Pharmaceuticals, priority 2015, published 2016).

Legend:
[1] = system: reference strains; conditions: in vitro, versus other antifungals
[2] = system: onychomycosis; conditions: 48 weeks of topical efinaconazole

For `C=C1CCN([C@H](C)[C@](O)(Cn2cncn2)c2ccc(F)cc2F)CC1` [Efinaconazole, (2R,3R)-2-(2,4-difluorophenyl)-3-(4-methylenepiperidin-1-yl)-1-(1H-1,2,4-triazol-1-yl)butan-2-ol], the “potency in broth dilution tests” value [1] is listed as “more potent than terbinafine, ciclopirox, itraconazole, and amorolfine” and the “mycological cure rate compared with other antifungal agents” value [2] is listed as “more than that for 48 weeks of topical ciclopirox and comparable to 12 weeks of oral itraconazole”.
